Measurements: ChEMBL document CHEMBL4507295 (2021)

Tests used:
[1] = target: Homeodomain-interacting protein kinase 2 (Homo sapiens) (UniProt Q9H2X6); settings: Compound concentration 1000.0 nM
[2] = target: Serine/threonine-protein kinase RIO1 (Homo sapiens) (UniProt Q9BRS2); settings: Compound concentration 1000.0 nM
[3] = target: Cyclin-dependent kinase 11A (Homo sapiens) (UniProt Q9UQ88); settings: Compound concentration 1000.0 nM
[4] = target: MAP kinase-interacting serine/threonine-protein kinase 1 (Homo sapiens) (UniProt Q9BUB5); settings: Compound concentration 1000.0 nM
[5] = target: Ephrin type-A receptor 3 (Homo sapiens) (UniProt P29320); settings: Compound concentration 1000.0 nM
[6] = target: Non-receptor tyrosine-protein kinase TYK2 (Homo sapiens) (UniProt P29597); settings: Compound concentration 1000.0 nM
[7] = target: SNF-related serine/threonine-protein kinase (Homo sapiens) (UniProt Q9NRH2); settings: Compound concentration 1000.0 nM
[8] = target: Mitogen-activated protein kinase 12 (Homo sapiens) (UniProt P53778); settings: Compound concentration 1000.0 nM
[9] = target: Activin receptor type-2A (Homo sapiens) (UniProt P27037); settings: Compound concentration 1000.0 nM
[10] = target: Dual serine/threonine and tyrosine protein kinase (Homo sapiens) (UniProt Q6XUX3); settings: Compound concentration 1000.0 nM
[11] = target: Activin receptor type-1-like (Homo sapiens) (UniProt P37023); settings: Compound concentration 1000.0 nM
[12] = target: Histamine H2 receptor (Homo sapiens) (UniProt P25021); settings: Compound concentration 10.0 uM
[13] = target: 5-hydroxytryptamine receptor 1B (Homo sapiens) (UniProt P28222); settings: Compound concentration 10.0 uM
[14] = target: Aurora kinase C (Homo sapiens) (UniProt Q9UQB9); settings: Compound concentration 1000.0 nM
[15] = tested on: Tyrosine-protein kinase ABL1 (Homo sapiens), P00519 [H396P]; settings: Compound concentration 1000.0 nM
[16] = target: Serine/threonine-protein kinase WNK4 (Homo sapiens) (UniProt Q96J92); settings: Compound concentration 1000.0 nM
[17] = target: Insulin-like growth factor 1 receptor (Homo sapiens) (UniProt P08069); settings: Compound concentration 1000.0 nM
[18] = target: Phosphatidylinositol 3-kinase C2 domain-containing subunit gamma (Homo sapiens) (UniProt O75747); settings: Compound concentration 1000.0 nM
[19] = target: Casein kinase I isoform alpha-like (Homo sapiens) (UniProt Q8N752); settings: Compound concentration 1000.0 nM
[20] = target: Ephrin type-A receptor 2 (Homo sapiens) (UniProt P29317); settings: Compound concentration 1000.0 nM
[21] = target: Serine/threonine-protein kinase 3 (Homo sapiens) (UniProt Q13188); settings: Compound concentration 1000.0 nM
[22] = target: Serine/threonine-protein kinase NLK (Homo sapiens) (UniProt Q9UBE8); settings: Compound concentration 1000.0 nM
[23] = target: High affinity nerve growth factor receptor (Homo sapiens) (UniProt P04629); settings: Compound concentration 1000.0 nM
[24] = target: Tyrosine-protein kinase Lyn (Homo sapiens) (UniProt P07948); settings: Compound concentration 1000.0 nM
[25] = target: Protein kinase C epsilon type (Homo sapiens) (UniProt Q02156); settings: Compound concentration 1000.0 nM
[26] = target: Serine/threonine-protein kinase PRP4 homolog (Homo sapiens) (UniProt Q13523); settings: Compound concentration 1000.0 nM
[27] = target: Cyclin-dependent kinase 2 homolog (Plasmodium falciparum (isolate 3D7)) (UniProt P61075); settings: Compound concentration 1000.0 nM
[28] = target: Serine/threonine-protein kinase 17A (Homo sapiens) (UniProt Q9UEE5); settings: Compound concentration 1000.0 nM
[29] = target: Mast/stem cell growth factor receptor Kit (Homo sapiens) (UniProt P10721); settings: Compound concentration 1000.0 nM
[30] = target: Serine/threonine-protein kinase PknB (Mycobacterium tuberculosis) (UniProt P9WI81); settings: Compound concentration 1000.0 nM
[31] = target: Serine/threonine-protein kinase 17B (Homo sapiens) (UniProt O94768); settings: Compound concentration 1000.0 nM
[32] = target: Ribosomal protein S6 kinase alpha-4 (Homo sapiens) (UniProt O75676); settings: Compound concentration 1000.0 nM
[33] = target: Serine/threonine-protein kinase SIK3 (Homo sapiens) (UniProt Q9Y2K2); settings: Compound concentration 1000.0 nM
[34] = target: Serine/threonine-protein kinase MRCK beta (Homo sapiens) (UniProt Q9Y5S2); settings: Compound concentration 1000.0 nM
[35] = target: Receptor tyrosine-protein kinase erbB-2 (Homo sapiens) (UniProt P04626); settings: Compound concentration 1000.0 nM
[36] = target: Megakaryocyte-associated tyrosine-protein kinase (Homo sapiens) (UniProt P42679); settings: Compound concentration 1000.0 nM
[37] = target: Serine/threonine-protein kinase LATS1 (Homo sapiens) (UniProt O95835); settings: Compound concentration 1000.0 nM
[38] = target: T1, 5-hydroxytryptamine receptor 3A (Homo sapiens) (UniProt P46098); settings: Compound concentration 10.0 uM
T1 sequence (whole entry): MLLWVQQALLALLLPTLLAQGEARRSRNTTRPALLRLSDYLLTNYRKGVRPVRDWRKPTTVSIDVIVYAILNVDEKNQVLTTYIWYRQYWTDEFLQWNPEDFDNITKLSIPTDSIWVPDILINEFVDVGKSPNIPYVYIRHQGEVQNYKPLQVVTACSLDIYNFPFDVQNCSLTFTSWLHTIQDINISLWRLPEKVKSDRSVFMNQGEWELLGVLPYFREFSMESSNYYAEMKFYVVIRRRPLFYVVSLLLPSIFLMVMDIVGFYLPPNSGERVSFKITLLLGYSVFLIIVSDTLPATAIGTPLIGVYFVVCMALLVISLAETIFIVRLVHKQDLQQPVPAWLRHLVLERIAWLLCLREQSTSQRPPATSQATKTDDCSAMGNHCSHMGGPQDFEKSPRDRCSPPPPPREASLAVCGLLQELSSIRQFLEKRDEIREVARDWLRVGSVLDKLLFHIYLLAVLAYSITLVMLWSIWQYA

[39] = target: Serine/threonine-protein kinase NIM1 (Homo sapiens) (UniProt Q8IY84); settings: Compound concentration 1000.0 nM

Sequence of Tyrosine-protein kinase Lyn (Homo sapiens) (P07948 2-512 limits assumed): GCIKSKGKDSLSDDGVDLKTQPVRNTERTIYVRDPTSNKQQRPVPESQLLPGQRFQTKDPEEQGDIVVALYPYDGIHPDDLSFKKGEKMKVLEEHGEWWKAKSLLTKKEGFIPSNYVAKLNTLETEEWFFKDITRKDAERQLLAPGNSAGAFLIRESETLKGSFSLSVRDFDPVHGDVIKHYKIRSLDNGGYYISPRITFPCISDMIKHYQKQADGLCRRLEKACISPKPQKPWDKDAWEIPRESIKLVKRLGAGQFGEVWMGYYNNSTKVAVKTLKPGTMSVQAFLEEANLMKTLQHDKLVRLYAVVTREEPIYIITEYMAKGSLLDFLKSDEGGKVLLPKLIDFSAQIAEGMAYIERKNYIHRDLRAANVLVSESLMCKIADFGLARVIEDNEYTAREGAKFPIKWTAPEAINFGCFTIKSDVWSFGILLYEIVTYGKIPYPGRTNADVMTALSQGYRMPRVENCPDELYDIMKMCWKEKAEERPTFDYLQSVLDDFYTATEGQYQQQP
Sequence of Activin receptor type-2A (Homo sapiens) (P27037 whole entry): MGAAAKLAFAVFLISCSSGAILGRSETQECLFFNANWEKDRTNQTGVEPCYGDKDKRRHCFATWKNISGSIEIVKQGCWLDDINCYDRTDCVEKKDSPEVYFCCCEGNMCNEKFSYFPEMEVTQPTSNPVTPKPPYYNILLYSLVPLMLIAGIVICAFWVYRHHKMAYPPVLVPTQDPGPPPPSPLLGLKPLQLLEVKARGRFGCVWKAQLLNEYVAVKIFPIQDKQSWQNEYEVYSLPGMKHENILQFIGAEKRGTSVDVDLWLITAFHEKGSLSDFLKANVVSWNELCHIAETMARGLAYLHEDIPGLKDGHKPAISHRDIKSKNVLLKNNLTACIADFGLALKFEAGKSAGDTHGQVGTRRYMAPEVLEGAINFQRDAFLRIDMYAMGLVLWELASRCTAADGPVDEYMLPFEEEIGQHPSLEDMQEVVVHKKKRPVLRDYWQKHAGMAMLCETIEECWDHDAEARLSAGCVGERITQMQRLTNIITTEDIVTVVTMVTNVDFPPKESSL
Sequence of Serine/threonine-protein kinase WNK4 (Homo sapiens) (Q96J92 whole entry): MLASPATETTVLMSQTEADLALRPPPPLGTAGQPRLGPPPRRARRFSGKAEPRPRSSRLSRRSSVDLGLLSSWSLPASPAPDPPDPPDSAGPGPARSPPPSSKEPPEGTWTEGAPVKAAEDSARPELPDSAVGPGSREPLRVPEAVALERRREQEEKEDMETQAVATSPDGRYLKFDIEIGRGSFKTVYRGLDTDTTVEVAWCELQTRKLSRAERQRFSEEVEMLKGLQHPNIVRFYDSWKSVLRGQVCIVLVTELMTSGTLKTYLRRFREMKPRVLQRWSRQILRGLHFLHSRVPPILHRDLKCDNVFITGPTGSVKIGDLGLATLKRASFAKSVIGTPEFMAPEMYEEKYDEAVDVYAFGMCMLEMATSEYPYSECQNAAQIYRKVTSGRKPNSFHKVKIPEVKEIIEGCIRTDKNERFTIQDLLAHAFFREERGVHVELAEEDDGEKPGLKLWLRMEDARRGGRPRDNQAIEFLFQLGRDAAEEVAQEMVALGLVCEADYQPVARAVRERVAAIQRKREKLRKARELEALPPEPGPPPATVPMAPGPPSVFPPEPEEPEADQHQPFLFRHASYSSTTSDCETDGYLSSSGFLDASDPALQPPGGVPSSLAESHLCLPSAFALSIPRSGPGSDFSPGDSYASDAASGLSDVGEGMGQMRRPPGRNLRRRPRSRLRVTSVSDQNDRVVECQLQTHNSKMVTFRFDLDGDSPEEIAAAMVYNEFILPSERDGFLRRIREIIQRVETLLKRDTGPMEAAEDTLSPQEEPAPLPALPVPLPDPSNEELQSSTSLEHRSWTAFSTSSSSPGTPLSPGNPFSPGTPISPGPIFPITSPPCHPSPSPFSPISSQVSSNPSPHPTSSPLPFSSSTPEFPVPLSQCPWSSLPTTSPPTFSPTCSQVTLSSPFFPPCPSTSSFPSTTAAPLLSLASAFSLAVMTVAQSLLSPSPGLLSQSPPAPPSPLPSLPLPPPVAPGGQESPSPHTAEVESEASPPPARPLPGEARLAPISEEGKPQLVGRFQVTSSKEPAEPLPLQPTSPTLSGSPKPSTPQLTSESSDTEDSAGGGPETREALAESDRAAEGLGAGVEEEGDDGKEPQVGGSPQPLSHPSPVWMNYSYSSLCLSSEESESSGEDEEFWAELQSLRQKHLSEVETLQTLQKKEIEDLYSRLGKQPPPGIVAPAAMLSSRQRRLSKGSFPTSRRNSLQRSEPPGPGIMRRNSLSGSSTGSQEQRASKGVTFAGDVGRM
Sequence of Serine/threonine-protein kinase 17A (Homo sapiens) (Q9UEE5 whole entry): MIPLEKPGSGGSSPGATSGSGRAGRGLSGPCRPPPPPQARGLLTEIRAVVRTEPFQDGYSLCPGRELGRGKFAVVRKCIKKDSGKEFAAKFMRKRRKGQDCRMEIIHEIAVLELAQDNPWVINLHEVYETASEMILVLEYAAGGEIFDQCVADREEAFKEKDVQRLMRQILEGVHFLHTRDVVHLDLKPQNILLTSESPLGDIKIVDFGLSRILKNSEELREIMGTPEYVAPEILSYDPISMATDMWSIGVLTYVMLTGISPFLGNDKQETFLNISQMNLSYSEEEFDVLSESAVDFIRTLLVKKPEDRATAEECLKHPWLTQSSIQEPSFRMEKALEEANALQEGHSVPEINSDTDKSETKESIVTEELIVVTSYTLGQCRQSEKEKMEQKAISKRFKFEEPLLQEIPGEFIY
Sequence of Histamine H2 receptor (Homo sapiens) (P25021 whole entry): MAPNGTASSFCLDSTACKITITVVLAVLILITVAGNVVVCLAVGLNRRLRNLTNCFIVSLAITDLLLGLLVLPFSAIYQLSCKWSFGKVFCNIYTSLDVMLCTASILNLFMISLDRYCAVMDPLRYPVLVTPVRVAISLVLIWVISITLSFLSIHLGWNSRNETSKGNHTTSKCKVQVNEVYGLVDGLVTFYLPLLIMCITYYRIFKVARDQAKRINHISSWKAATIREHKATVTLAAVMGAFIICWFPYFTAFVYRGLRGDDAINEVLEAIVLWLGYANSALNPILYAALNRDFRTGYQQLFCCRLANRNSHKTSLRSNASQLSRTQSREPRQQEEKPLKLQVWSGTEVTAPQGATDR
Sequence of Cyclin-dependent kinase 11A (Homo sapiens) (Q9UQ88 whole entry): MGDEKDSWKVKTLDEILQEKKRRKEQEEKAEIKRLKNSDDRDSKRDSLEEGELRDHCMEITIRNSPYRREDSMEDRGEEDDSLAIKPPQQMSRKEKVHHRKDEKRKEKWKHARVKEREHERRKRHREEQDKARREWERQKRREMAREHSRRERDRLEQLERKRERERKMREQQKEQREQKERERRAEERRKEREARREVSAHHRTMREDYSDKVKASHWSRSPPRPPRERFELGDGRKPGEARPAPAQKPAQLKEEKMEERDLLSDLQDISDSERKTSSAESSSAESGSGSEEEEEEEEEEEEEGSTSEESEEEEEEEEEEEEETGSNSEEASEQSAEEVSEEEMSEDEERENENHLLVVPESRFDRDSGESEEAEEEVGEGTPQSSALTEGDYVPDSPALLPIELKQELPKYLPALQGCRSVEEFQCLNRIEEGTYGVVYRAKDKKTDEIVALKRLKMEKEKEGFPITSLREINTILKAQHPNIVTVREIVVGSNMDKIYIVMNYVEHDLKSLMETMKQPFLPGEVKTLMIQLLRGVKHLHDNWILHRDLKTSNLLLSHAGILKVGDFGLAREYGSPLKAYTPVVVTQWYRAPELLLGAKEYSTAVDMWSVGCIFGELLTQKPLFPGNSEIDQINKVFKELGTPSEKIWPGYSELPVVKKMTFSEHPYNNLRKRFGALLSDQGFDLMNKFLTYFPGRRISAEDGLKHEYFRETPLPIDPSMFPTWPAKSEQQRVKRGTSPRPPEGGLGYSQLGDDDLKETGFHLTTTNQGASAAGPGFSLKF
Sequence of Activin receptor type-1-like (Homo sapiens) (P37023 whole entry): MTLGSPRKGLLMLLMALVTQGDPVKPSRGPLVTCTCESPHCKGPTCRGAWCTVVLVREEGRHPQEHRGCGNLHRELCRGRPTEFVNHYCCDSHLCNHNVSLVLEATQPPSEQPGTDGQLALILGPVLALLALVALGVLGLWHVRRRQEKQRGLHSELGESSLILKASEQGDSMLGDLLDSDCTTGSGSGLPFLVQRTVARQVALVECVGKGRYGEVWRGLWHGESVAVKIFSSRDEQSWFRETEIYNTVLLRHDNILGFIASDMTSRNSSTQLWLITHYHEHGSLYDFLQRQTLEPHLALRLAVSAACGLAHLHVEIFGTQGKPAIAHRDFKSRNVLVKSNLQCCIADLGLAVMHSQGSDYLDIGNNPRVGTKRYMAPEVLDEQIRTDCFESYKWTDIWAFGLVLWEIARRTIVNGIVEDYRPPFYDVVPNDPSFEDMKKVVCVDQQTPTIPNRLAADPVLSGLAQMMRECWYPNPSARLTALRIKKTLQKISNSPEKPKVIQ
Sequence of MAP kinase-interacting serine/threonine-protein kinase 1 (Homo sapiens) (Q9BUB5 whole entry, looked up): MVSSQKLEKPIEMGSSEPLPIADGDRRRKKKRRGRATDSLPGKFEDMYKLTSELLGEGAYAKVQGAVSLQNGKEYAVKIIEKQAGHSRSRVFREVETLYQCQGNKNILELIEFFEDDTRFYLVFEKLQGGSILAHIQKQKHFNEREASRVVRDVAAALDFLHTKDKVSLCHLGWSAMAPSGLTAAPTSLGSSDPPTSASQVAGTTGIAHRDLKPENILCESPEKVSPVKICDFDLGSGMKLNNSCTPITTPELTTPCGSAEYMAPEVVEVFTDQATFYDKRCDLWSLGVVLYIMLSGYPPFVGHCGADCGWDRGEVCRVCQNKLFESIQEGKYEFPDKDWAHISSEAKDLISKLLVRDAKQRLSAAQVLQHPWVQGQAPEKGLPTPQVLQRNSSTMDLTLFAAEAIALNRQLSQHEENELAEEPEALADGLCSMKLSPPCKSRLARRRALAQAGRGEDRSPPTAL

N#CC1(c2ccccn2)CCN(Cc2cc(C(=O)O)c(=O)n3ccccc23)CC1 [MSD-M1PAM]
inactive: residual activity [1] 66% | residual activity [2] 88% | residual activity [3] 100% | residual activity [4] 85% | residual activity [5] 75% | residual activity [6] 93% | residual activity [7] 76% | residual activity [8] 78% | residual activity [9] 95% | residual activity [10] 75% | residual activity [11] 95% | inhibition [12] 11.7% | inhibition [13] 2.72% | residual activity [14] 94% | residual activity [15] 91% | residual activity [16] 75% | residual activity [17] 89% | residual activity [18] 97% | residual activity [19] 100% | residual activity [20] 83% | residual activity [21] 98% | residual activity [22] 100% | residual activity [23] 88% | residual activity [24] 100% | residual activity [25] 100% | residual activity [26] 100% | residual activity [27] 68% | residual activity [28] 100% | residual activity [29] 87% | residual activity [30] 88% | residual activity [31] 100% | residual activity [32] 94% | residual activity [33] 97% | residual activity [34] 96% | residual activity [35] 96% | residual activity [36] 84% | residual activity [37] 100% | inhibition [38] 12% | residual activity [39] 69%

N#CC1(c2ccccn2)CCN(Cc2cc(C(=O)N3CCCC3)c(=O)n3ccccc23)CC1
inactive: residual activity [1] 100% | residual activity [2] 95% | residual activity [3] 93% | residual activity [4] 100% | residual activity [5] 100% | residual activity [6] 100% | residual activity [7] 91% | residual activity [8] 100% | residual activity [9] 78% | residual activity [10] 80% | residual activity [11] 100% | inhibition [12] 3.1% | inhibition [13] 13% | residual activity [14] 88% | residual activity [15] 100% | residual activity [16] 81% | residual activity [17] 88% | residual activity [18] 73% | residual activity [19] 91% | residual activity [20] 86% | residual activity [21] 92% | residual activity [22] 92% | residual activity [23] 100% | residual activity [24] 99% | residual activity [25] 79% | residual activity [26] 78% | residual activity [27] 100% | residual activity [28] 96% | residual activity [29] 100% | residual activity [30] 92% | residual activity [31] 93% | residual activity [32] 79% | residual activity [33] 100% | residual activity [34] 63% | residual activity [35] 95% | residual activity [36] 76% | residual activity [37] 100% | inhibition [38] 6.59% | residual activity [39] 95%
